According to patent publication EP4763847A1 (Jiangsu Yahong Meditech Co., Ltd., priority 2023, dated 2025):

What was measured:
[1] = system: HCT116 MTAP KO; assay: Cell proliferation inhibition (CellTiter Glo), HCT116 MTAP KO cells; type: cell-based; conditions: cultured 6 days with compound
Description: (§1) Test Example 2: Test of cell proliferation inhibition activity of the compounds
(§2) HCT116-WT (ATCC, CCL-247) and HCT116 MTAP KO (Cobioer Nanjing, CBP75002) cells were seeded into white low-transparency 96-well sterile cell culture plates at a density of 250 cells per well, respectively. The culture medium was McCoy's 5A Medium + 10% FBS. The plates were incubated overnight at 37°C with 5% CO2. The cells were treated with compounds gradiently with an initial concentration of 10000 nM, 4-fold dilution, and 8 concentration points. The last two columns were control wells with only DMSO added. The treated cells were continued to be cultured for 6 days. On the seventh day, 50 µL of CellTiter Glo® reagent was added to each well. After reacting on a shaker at room temperature for 10 minutes, the chemiluminescence signal in the plate was detected using the chemiluminescence detection method on a BIOTEK H1 multi-mode plate reader. […] Table 2: IC50 values of compounds for HCT116 MTAP KO/WT cell growth inhibition

[2] = system: HCT116-WT; assay: Cell proliferation inhibition (CellTiter Glo), HCT116-WT cells; type: cell-based; conditions: cultured 6 days with compound
Description: as §1, §2

[3] = target: PRMT5-MTA (Homo sapiens, UniProt O14744); assay: biochemical; conditions: IC50 (nM), PRMT5+MTA enzyme activity inhibition; PRMT5/MET50 protein 1 nM, 5'-deoxy-5'-adenosine 1 µM, SAM 2.5 µM, Histone H4 substrate 5 nM
PRMT5-MTA, sequence (O14744 whole entry): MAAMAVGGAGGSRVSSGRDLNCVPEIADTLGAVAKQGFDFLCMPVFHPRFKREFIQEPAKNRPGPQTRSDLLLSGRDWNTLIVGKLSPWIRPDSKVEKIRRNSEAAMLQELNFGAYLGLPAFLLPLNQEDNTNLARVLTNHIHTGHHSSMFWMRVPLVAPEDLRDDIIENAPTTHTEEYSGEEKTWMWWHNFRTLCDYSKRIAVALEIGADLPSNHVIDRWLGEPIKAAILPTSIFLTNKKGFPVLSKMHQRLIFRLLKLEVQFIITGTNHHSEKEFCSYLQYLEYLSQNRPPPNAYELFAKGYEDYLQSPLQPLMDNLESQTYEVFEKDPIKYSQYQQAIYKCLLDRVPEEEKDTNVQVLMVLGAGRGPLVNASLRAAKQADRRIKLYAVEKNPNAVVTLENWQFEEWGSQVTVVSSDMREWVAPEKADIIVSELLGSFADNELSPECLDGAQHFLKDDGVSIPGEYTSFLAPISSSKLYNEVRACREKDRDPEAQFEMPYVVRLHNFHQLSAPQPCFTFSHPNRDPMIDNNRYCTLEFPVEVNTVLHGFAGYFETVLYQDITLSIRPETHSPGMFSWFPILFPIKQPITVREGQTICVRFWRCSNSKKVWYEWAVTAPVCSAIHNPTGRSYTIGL
PRMT5-MTA, sequence (Q9BQA1 whole entry partner): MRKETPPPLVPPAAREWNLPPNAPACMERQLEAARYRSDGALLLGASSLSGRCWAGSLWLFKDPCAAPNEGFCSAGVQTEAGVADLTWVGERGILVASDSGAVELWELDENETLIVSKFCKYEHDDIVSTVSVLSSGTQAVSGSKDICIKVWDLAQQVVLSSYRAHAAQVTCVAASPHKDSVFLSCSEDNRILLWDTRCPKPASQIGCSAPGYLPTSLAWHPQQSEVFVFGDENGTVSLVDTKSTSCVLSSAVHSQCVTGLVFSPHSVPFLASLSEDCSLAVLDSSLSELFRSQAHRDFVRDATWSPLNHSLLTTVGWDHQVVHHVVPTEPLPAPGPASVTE
Description: The enzymatic inhibition activity of the compounds against PRMT5-MTA was detected using the AlphaScreen method. A 1× methyltransferase assay buffer IV (Signalchem) was prepared as a dilution solution for each component of the enzymatic reaction. […] The test compounds were added to all wells except the control wells in a 3-fold dilution series of 10 concentration points starting from 1000 nM using a Tecan D300e. After centrifugation at 1000 rpm for 1 minute in a centrifuge, the plate was incubated at 23°C for 15 minutes. Histone H4 substrate at a final concentration of 5 nM was added to the plate at 4 µL per well. After centrifugation at 1000 rpm for 1 minute in a centrifuge, the plate was reacted in an incubator at 23°C for 45 minutes. Anti-Histone H4 (symmetric dimethyl R3) antibody (Abcam) was pre-incubated with 50 µg/mL AlphaScreen Protein A Acceptor beads (PerkinElmer) at room temperature for 10 minutes, and then added to the plate in a volume of 10 µL per well, followed by reaction at room temperature for 1 hour. 10 µL of 50 µg/mL AlphaScreen Streptavidin Donor beads (PerkinElmer) were added to each well, and reacted at room temperature for 1 hour. The signal values in the plate were detected using the Alpha method on an Envision multi-mode plate reader. The IC50 values of the compounds for PRMT5/MET50 enzyme activity inhibition were calculated in Xlfit 5.0 software.

IC50 ([1]; Homo sapiens, HCT-116, 144 h) [nM]	IC50 ([2]; 144 h) [nM]	IC50 [3] [nM]	IC50 [1] [nM]	IC50 [2] [nM]	SMILES
34	971	0.4			CNC(N)=Nc1ccc(C(=O)N(Cc2ccc(C(F)(F)F)cn2)C(C)c2ncccc2F)cn1 (racemic) [Compound 58]
30	569	5.4			CN/C(N)=N\c1ccc(C(=O)N(Cc2ccc(C(F)(F)F)cn2)C(C)c2ncccc2F)cn1 (single isomer, unassigned) [Compound 65]
		7.5			CN/C(N)=N\c1ccc(C(=O)N(Cc2ccc(C(F)(F)F)cn2)C(C)c2ncccc2F)cn1 (single isomer, unassigned) [Compound 66]
150	2250	1.7			CNC(N)=Nc1ccc(C(=O)N(Cc2ccc(C(F)(F)F)cn2)C(C)c2ncccn2)cn1 (stereo not shown) [Compound 1]
		1.6			CNC(N)=Nc1ccc(C(=O)N(Cc2ccc(C(F)(F)F)cn2)C(C)c2ncccn2)cc1 (stereo not shown) [Compound 4]
422	1520	2.1			CC(c1ncccn1)N(Cc1ccc(C(F)(F)F)cn1)C(=O)c1ccc(N=C(N)N)nc1 (stereo not shown) [Compound 7]
		5.5			COC(=O)CNC(N)=Nc1ccc(C(=O)N(Cc2ccc(C(F)(F)F)cn2)C(C)c2ncccn2)cn1 (stereo not shown) [Compound 8]
		7.9			CC(c1ncccn1)N(Cc1ccc(C(F)(F)F)cn1)C(=O)c1ccc(N=C(N)Nc2ccccc2)nc1 (stereo not shown) [Compound 9]
		1.3			CC(c1ncccn1)N(Cc1ccc(C(F)(F)F)cn1)C(=O)c1ccc(N=C(N)NCCN(C)C)nc1 (stereo not shown) [Compound 10]
55	210	3			CC(c1ncccn1)N(Cc1ccc(C(F)(F)F)cn1)C(=O)c1ccc(N=C(N)NO)nc1 (stereo not shown) [Compound 12]
707	3550	1.3			CCNC(N)=Nc1ccc(C(=O)N(Cc2ccc(C(F)(F)F)cn2)C(C)c2ncccn2)cn1 (stereo not shown) [Compound 14]
		2.3			CC(C)NC(N)=Nc1ccc(C(=O)N(Cc2ccc(C(F)(F)F)cn2)C(C)c2ncccn2)cn1 (stereo not shown) [Compound 15]
868	2030				CC(c1ncccn1)N(Cc1ccc(C(F)(F)F)cn1)C(=O)c1ccc(N=C(N)NCC(=O)O)nc1 (stereo not shown) [Compound 18]
		0.8			CC(c1ncccn1)N(Cc1ccc(C(F)(F)F)cn1)C(=O)c1ccc(N=C(N)NCCO)nc1 (stereo not shown) [Compound 19]
		4.7			CNC(=Nc1ccc(C(=O)N(Cc2ccc(C(F)(F)F)cn2)C(C)c2ncccn2)cn1)NC (stereo not shown) [Compound 21, 6-((bis(methyl-amino)methylene)amino)-N-(1-(pyrimidin-2-yl)ethyl)-N-((5-(trifluoromethyl)pyridin-2-yl)methyl)nicotinamide]
		5.8			COC=C(N)Nc1ccc(C(=O)N(Cc2ccc(C(F)(F)F)cn2)C(C)c2ncccn2)cn1 (stereo not shown) [Compound 23]
302	3360	3.4			CNC(N)=Nc1ccc(C(=O)N(Cc2ccc(C(F)(F)F)cn2)C(C)c2cccc(C)c2)cn1 (stereo not shown) [Compound 31, 6-((amino(methylamino)methylene)amino)-N-(1-(m-tolyl)ethyl)-N-((5-(trifluoromethyl)pyridin-2-yl)methyl)nicotinamide]
114	1890	1.5			CNC(N)=Nc1ccc(C(=O)N(Cc2ccc(C(F)(F)F)cn2)C(C)c2ccccc2)cn1 (stereo not shown) [Compound 32]
279	4000	1			CNC(N)=Nc1ccc(C(=O)N(Cc2ccc(C(F)(F)F)cn2)C(C)C2CC2)cn1 (stereo not shown) [Compound 33]
182	3480	1.8			CNC(N)=Nc1ccc(C(=O)N(Cc2ccc(C(F)(F)F)cn2)C(C)c2ccccn2)cn1 (stereo not shown) [Compound 34]
		2			CNC(N)=Nc1ccc(C(=O)N(Cc2ccc(C(F)(F)F)cn2)C2CCC2)cn1 [Compound 35]
521	5360	3.6			CNC(N)=Nc1ccc(C(=O)N(Cc2ccccc2)Cc2ccc(C(F)(F)F)cn2)cn1 [Compound 36]
454	2700				CNC(N)=Nc1ccc(C(=O)N(Cc2ccc(C(F)(F)F)cn2)C(C)c2ccc(F)cc2)cn1 (stereo not shown) [Compound 37]
		1.2			CNC(N)=Nc1ccc(C(=O)N(Cc2ccc(C(F)(F)F)cn2)C(C)c2ccncc2)cn1 (stereo not shown) [Compound 39]

IC50 ([1]; Homo sapiens, HCT-116, 144 h) [nM]	IC50 ([2]; 144 h) [nM]	IC50 [3] [nM]	IC50 [1] [nM]	IC50 [2] [nM]	SMILES
		1.9			CNC(N)=Nc1ccc(C(=O)N(Cc2ccc(C(F)(F)F)cn2)C(C)c2ccc(C)cc2)cn1 (stereo not shown) [Compound 40]
931	3710	2.5			CNC(N)=Nc1ccc(C(=O)N(Cc2ccc(C(F)(F)F)cn2)C(C)c2ccccc2C)cn1 (stereo not shown) [Compound 41]
61	982	1.6			CNC(N)=Nc1ccc(C(=O)N(Cc2ccc(C(F)(F)F)cn2)C(C)c2ccccc2F)cn1 (stereo not shown) [Compound 42]
		1.6			CNC(N)=Nc1ccc(C(=O)N(Cc2ccc(C(F)(F)F)cn2)C(C)c2cccc3ccccc23)cn1 (stereo not shown) [Compound 43]
		2.6	17	493	CNC(N)=Nc1ccc(C(=O)N(Cc2ccc(C(F)(F)F)cn2)C2CCCc3cccnc32)cn1 (stereo not shown) [Compound 44]
24	275	1			CNC(N)=Nc1ccc(C(=O)N(Cc2ccc(C(F)(F)F)cn2)c2cccc3cccnc23)cn1 [Compound 45, 6-((amino(methylamino)methylene)amino)-N-(quinolin-8-yl)-N-((5-(trifluoromethyl)pyridin-2-yl)methyl)nicotinamide]
31	593	1.4			CNC(N)=Nc1ccc(C(=O)N(Cc2ccc(C(F)(F)F)cn2)c2cccc3ccccc23)cn1 [Compound 47]
25	512	1.7			CNC(N)=Nc1ccc(C(=O)N(Cc2ccc(C(F)(F)F)cn2)c2cccc3nccnc23)cn1 [Compound 50]
51	618	2.6			CNC(N)=Nc1ccc(C(=O)N(Cc2ccc(C(F)(F)F)cn2)c2csc3cccnc23)cn1 [Compound 51]
		2			CNC(N)=Nc1ccc(C(=O)N(C)C2COc3cc(C(F)(F)F)ccc32)cn1 (stereo not shown) [Compound 54, 6-((amino(methylamino)methylene)amino)-N-methyl-N-(6-(trifluoromethyl)-2,3-dihydrobenzofuran-3-yl)nicotinamide]
		5			CNC(N)=Nc1ccc(C(=O)N(C)C2COc3cc(-c4ccncc4)ccc32)cn1 (stereo not shown) [Compound 55, 6-((amino(methylamino)methylene)amino)-N-methyl-N-(6-(pyridin-4-yl)-2,3-dihydrobenzofuran-3-yl)nicotinamide]
36	536	5.8			CNC(N)=Nc1ccc(C(=O)N(Cc2ccc(C(F)(F)F)cn2)n2ccc3cccnc32)cn1 [Compound 56, 6-((amino(methylamino)methylene)amino)-N-(1H-pyrrolo[2,3-b]pyridin-1-yl)-N-[(5-(trifluoromethyl)pyridin-2-yl)methyl)nicotinamide]
		1.8			CNC(N)=Nc1ccc(C(=O)N2C[C@@H](C)CC[C@@H]2c2ccc(F)cc2)cn1 [Compound 57, 2-(5-((2R,5S)-2-(4-fluorophenyl)-5-methylpiperidine-1-carbonyl)pyridin-2-yl)-1-methyl guanidine]
18	413				CNC(N)=Nc1ccc(C(=O)N(Cc2ccc(C(F)(F)F)cn2)C2CCCc3cccnc32)cn1 (stereo not shown) [Compound 59]
933	2950	2.8			CNC(N)=Nc1ccc(C(=O)N(Cc2ccc(C(F)(F)F)cn2)C(C)c2ccccc2OC(F)(F)F)cn1 (stereo not shown) [Compound 60]
54	696				CNC(N)=Nc1ccc(C(=O)N(Cc2ccc(-c3cncs3)cn2)[C@H](C)c2ccccc2F)cn1 [Compound 72]
		7.8			CNC(N)=Nc1ccc(C(=O)N(Cc2ccc3sc(NC)nc3c2)[C@H](C)c2ccccc2F)cn1 [Compound 80]
25	428				CCC(c1ccccc1F)N(Cc1ccc(C(F)(F)F)cn1)C(=O)c1ccc(N=C(N)NC)nc1 (stereo not shown) [Compound 84]
		7.6			CNC(N)=Nc1ccc(C(=O)N(Cc2cccnc2)[C@H](C)c2ccccc2F)cn1 [Compound 100]
		4.2			CNC(N)=Nc1ccc(C(=O)N(CC2CCCCO2)C(C)c2ccccc2F)cn1 (stereo not shown) [Compound 103]
		1			CN/C(N)=N\c1ccc(C(=O)N(Cc2ccc(C(F)(F)F)cn2)C(C)c2cccc3nccnc23)cn1 (stereo not shown) [Compound 120, (Z)-6-((amino(methylamino)methylene)amino)-N-(1-(quinoxalin-5-yl)ethyl)-N-((5-(trifluoromethyl)pyridin-2-yl)methyl)nicotinamide]
192	1930				CN/C(N)=N\c1ccc(C(=O)N(Cc2ccc(C(F)(F)F)cn2)C2CCCc3nccnc32)cn1 (stereo not shown) [Compound 122, (Z)-6-((amino(methylamino)methylene)amino)-N-(5,6,7,8-tetrahydroquinoxalin-5-yl)-N -((5-(trifluoromethyl)pyridin-2-yl)methyl)nicotinamide]
		4.4			CNC(N)=Nc1ccc(C(=O)N(Cc2ccc(C(F)(F)F)cc2F)C(C)c2cccc3nccnc23)cn1 (stereo not shown) [compound 121]

SMILES	IC50 ([1]; Homo sapiens, HCT-116, 144 h) [nM]	IC50 ([2]; 144 h) [nM]	IC50 [3] [nM]	IC50 [1] [nM]	IC50 [2] [nM]
COCCNC(N)=Nc1ccc(C(=O)N(Cc2ccc(C(F)(F)F)cn2)C(C)c2ncccn2)cn1 (stereo not shown) [Compound 3]			2.9		
